Literature values, collected in US8986529B2, “Isotachophoresis having interacting anionic and cationic shock waves” (The Board of Trustees of the Leland Stanford Junior …, priority 2010, dated 2015).
Like-named read-outs stand apart in the source and are kept apart here.

Columns and labels:
[1] = for pKa: text b64: pKa,TE− of Tricine, pKa,LE+ of Imidazole, pKa,TE+ of Arginine
[2] = Table 1, fully-ionized (absolute) mobility of the +1 cation, cationic LE+/TE+ candidates for focusing to separation mode
[3] = Table 2, absolute mobility of the cation, cationic LE+/TE+ candidates for bidirectional cascade ITP
[4] = Table 2, acid dissociation constant of the cation, bidirectional cascade ITP buffers
[5] = Table 1, cationic LE+/TE+ candidates for focusing to separation mode

| SMILES | μ+1 [2] | μ+1 [3] | pKa,+1 [1, 4] | pKa,+1 [1, 5] | pKa [1] |
| --- | --- | --- | --- | --- | --- |
| Cc1ccccn1 [2-methyl pyridine] | 40.1 ×10^−9 m^2V^−1s^−1 | 40.1 ×10^−9 m^2V^−1s^−1 | 6.2 |  |  |
| Cc1cccnc1 [3-methyl pyridine] | 40.1 ×10^−9 m^2V^−1s^−1 |  |  | 5.5 |  |
| Cc1ccncc1 [4-methyl pyridine] |  | 40.1 ×10^−9 m^2V^−1s^−1 |  |  |  |
| CC(N)(CO)CO [Amediol] | 33.5 ×10^−9 m^2V^−1s^−1 |  |  |  |  |
| N=C(N)NCCC[C@H](N)C(=O)O [Arginine] | 26.9 ×10^−9 m^2V^−1s^−1 |  |  | 8.92 | 8.92 |
| OCCN(CCO)C(CO)(CO)CO [Bistris] |  | 26 ×10^−9 m^2V^−1s^−1 |  |  |  |
| c1c[nH]cn1 [Imidazole] | 52 ×10^−9 m^2V^−1s^−1 | 52 ×10^−9 m^2V^−1s^−1 | 7.15 | 7.15 | 7.15 |
| c1ccncc1 [Pyridine] |  | 30 ×10^−9 m^2V^−1s^−1 |  |  |  |
| NC(CO)(CO)CO [Tris] | 29.5 ×10^−9 m^2V^−1s^−1 | 29.5 ×10^−9 m^2V^−1s^−1 |  |  |  |
